Experimental data: patent US6030960A, “Method of treating hepatitis virus infections” (priority 1998, dated 2000)
≈ marks a conversion by molar mass, not a printed value. Where “and” joins values, the source holds several entries; their conditions need not be identical. Equal values may be shown once. Entries after “also recorded” stand apart in the source; their conditions may differ.

Experiments:
[1] = system: mouse precursor erythrocyte (CFU-E); experiment: Cytotoxicity: inhibition of mouse precursor erythrocyte (CFU-E) colony formation; assay type: cell-based; details: Mus musculus, Erythrocyte, read-out: inhibitory concentration 50% for colony formation (IC50)
Method: CP-51 and AZT were assayed for cytotoxicity by inhibition of mouse precursor erythrocyte (CFU-E) and granulocyte/macrophage (CFU-GM) cell colony formation.

[2] = system: granulocyte/macrophage (CFU-GM); experiment: Cytotoxicity: inhibition of mouse granulocyte/macrophage (CFU-GM) colony formation; assay type: cell-based; details: read-out: inhibitory concentration 50% for colony formation (IC50)
Method: CP-51 and AZT were assayed for cytotoxicity by inhibition of mouse precursor erythrocyte (CFU-E) and granulocyte/macrophage (CFU-GM) cell colony formation. Mouse bone marrow precursor cells were suspended in soft-agar-RPMI-1640 medium supplmented with cell growth factors and serial concentrations of alkyl lipid.

[3] = system: Friend-Leukemia virus; experiment: Inhibition of retrovirus-induced splenomegaly in Friend-Leukemia virus infected mice (Table 9); assay type: in vivo
Method: Mice were infected I.P. with Friend-Leukemia virus and not treated or treated I.P. with daily doses of phospholipid. After 14 days infection and treatment, the mice were sacrificed, the spleens were removed and weighed to determine the percentage, of control splenomegaly. […] Even a single dose of 25 mg/kg CP-51 inhibited splenomegaly by 36%.

[4] = Cytotoxicity of alkyl lipids, neutral red dye uptake (Table 1); assay type: cell-based; details: human, hep-g2 cells
Text: (§1) Initially, evaluations of the alkyl lipids were done to determine whether the compounds were cytotoxic to the cells at concentrations having anti-HBV activity. The assay methodology is szt forth in Korba and Germ, Antiviral Res., 19, 55-70 (1992), incorporated by reference herein. Briefly, these cell cytotoxicity evaluations were done in 96-well plates seeded with HEP-G2 cell monolayers. The hepatoblastoma cell line HEP-G2 transfected with a plasmid carrying the gene that confers resistance to […] and four 5'-3' tandem copies of the Hepatitis B virus genome was obtained from Dr. George Acs. Proc. Natl. Acad. Sci. USA, 84, 1005-1009 (1987). Serial concentrations of compound were added to the RPMI-1640 growth medium and the growth medium was added to the 96-well plates containing the cell monolayers. The cells were incubated for a total of nine days at 37° C. The compound-containing medium was periodically replaced. Each compound was tested at four serial concentrations in triplicate. After nine days of treatment and incubation, 0.01% neutral red dye (Sigma, Inc.) was added to the overlay medium. Cell cytotoxicity was quantitated by measuring the average A510. Values in Table 1 represent the percentage of average A510 values (±standard deviation) relative to nine non-treated control wells.

[5] = system: Hepatitis B virus; experiment: Anti-hepatitis B virus activity in HEP-G2 cells persistently infected with HBV (Table 2); assay type: cell-based; details: for activity at 10 µM: Hepatitis B virus, HepG2, 216 h
Method: HEP-G2 cells persistently infected with HBV were treated daily with fresh D-MEM containing 20% FBS and 10 μM compound. After 9 days incubation and treatment, the overlay medium was harvested to assay the quantity of Hepatitis B virus s antigen (HBsAg) and HBeAg by EIA (Abbott Laboratories). The overlay medium was diluted to levels of antigen in the linear range of the assay. Standard curves using dilutions of positive HBsAg and HBeAg controls were included in each assay. Virion DNA was assayed using the method set forth in Korba and Gerin, Antiviral Res., 19, 5,5-70 (1992), incorporated by reference herein. HBV DNA was extracted from the overlay medium containing virus particles and analyzed by a slot-blot hybridization technique using ^32 P-labelled 3.2 Kb Eco R1 HBV DNA fragment by comparisons to HBV standards present on nitrocellulose filters using an AMBIS beta scanner. EC90 values (90% effective concentration, i.e., drug concentration which induces a 90% decrease in the levels of HBV DNA replication intermediates in treated versus control cells) were calculated by linear regression analysis. The relative levels of HBsAg, HBeAg and virion DNA were calulated as a percentage of the average levels obtained from the untreated controls.

[6] = Cytotoxicity in HBV persistently infected human HEP G2 cells, neutral red dye uptake (Table 5); assay type: cell-based; details: human, hep-g2 cells, % of Control Neutral Red Dye Uptake
Text: as §1
(§2) An analysis was periormed to determine the cytotoxicity of the following compounds in human HEP-G2 cells persistently infected with HBV: CP-51, CP-49, CP-9, CP-126, lyso PAF and CP-7. 2'-3'-Dideoxycytidine (ddC) was used as a control in this cytotoxicity analysis. The toxicity analyses were performed in 96-well flat bottomed tissue culture plates following the same procedure set forth in Example 6 above. Each compound was tested at four concentrations, each in triplicate cultures. Uptake of neutral red dye was used to determine the relative level of toxicity. The absorbance of internalized dye at […] (A510) was used for the quantitative analysis.
(§3) Values are presented as a percentage of the average A510 values (± standard deviations) in ninz separate cultures of untreated cells maintained on the same 96-well plate as the test compounds. The percentage of dye uptake in the nine control cultures was 100±1.

[7] = system: HEP G2 cells persistently infected with HBV; experiment: as above; assay type: cell-based
Text: as §1, §2, §3

[8] = system: Hepatitis B virus; experiment: Effect of alkyl lipids on HBV replication in HBV persistently infected human HEP G2 cells (Table 6); assay type: cell-based; details: for Intracellular HBV DNA, Mono (episomal 3.2-3.8 Kb HBV genomes) / Intracellular HBV DNA, RI (replication intermediates): nine days
Method: Cells were treated with a particular compound for nine days at 37° C. Analysis of intracellular HEIV DNA was done 24 hours following the ninth day of treatment. […] The levels of integrated HBV DNA in each cellular DNA preparation were used to calculate the levels of episomal 3.2-3.8 Kb HBV genomes (Mono) and HBV DNA replication intermediates (RI). A zero value indicates an undetectable level of HBV virion DNA. The sensitivity cut-off was 0.1 pg DNA/ml of culture medium.

[9] = system: Hepatitis B virus; experiment: Effect on synthesis of antigen markers in persistently infected human HEP G2 cell cultures (Table 7); assay type: cell-based; details: for activity at 10 µM: Hepatitis B virus, HepG2, 216 h
Method: Cells were treated with compound for nine days at 37° C. The overlay medium was harvested to measure levels of HBsAg, HBeAg and virion DNA. HBsAg and HBeAg were assayed by EIA (Abbott Laboratories). Virion DNA levels were measured as described in section B above.

Cc1cn([C@H]2C[C@H](N=[N+]=[N-])[C@@H](CO)O2)c(=O)[nH]c1=O [AZT, 3'-azido-3'deoxythymidine, reference compound]
IC50 [1]: 0.43 µg/mL (≈ 1.61 µM)
IC50 [2]: 0.27 µg/mL (≈ 1.01 µM)
inhibition of retrovirus-induced splenomegaly ([3]; 12.5 mg/kg/day intraperitoneally): 10%
% of Control Splenomegaly ([3]; 12.5 mg/kg/day, daily treatment): 10 % of Control

CCCCCCCCCCCCCCCC(=O)NCC(COP(=O)([O-])OCC[N+](C)(C)C)OCC (racemic) [CP-49, rac-3-hexadecanamido-2-ethoxy-1-propylphosphocholine]
viability at 216 h, 3 µM ([4]; 3 μM, nine days, read-out: % of Control Neutral Red Dye Uptake): 99 ± 3%
viability at 216 h, 10 µM ([4]; 10 μM, nine days, read-out: % of Control Neutral Red Dye Uptake): 99 ± 4%
viability at 216 h, 30 µM ([4]; 30 μM, nine days, read-out: % of Control Neutral Red Dye Uptake): 60 ± 4%
cytotoxicity at 216 h, 30 µM ([4]; 30 μM, read-out: inhibition of neutral red dye uptake): 40%
viability at 216 h, 100 µM ([4]; 100 μM, nine days, read-out: % of Control Neutral Red Dye Uptake): 29 ± 1%
activity against HBV-induced virion DNA and HBeAg syntheses ([5]; 10 μM, in words): potent inhibitory activity
activity at 10 µM ([5]; read-out: Relative Level of HBeAg): 30%
activity at 10 µM ([5]; read-out: Relative Level of HBsAg): 115%
activity at 10 µM ([5]; read-out: Relative Level of Virion DNA): 1%
viability at 216 h, 3 µM [6]: 99 ± 3%
viability at 216 h, 10 µM [6]: 97 ± 2%
viability at 216 h, 100 µM [6]: 45 ± 4%
Cell toxicity (greater than 50% depression of dye uptake) ([7]; at concentrations with strong or moderate antiviral activity): did not occur
% of Control Neutral Red Dye Uptake ([7]; human, hep-g2 cells, 216 h, 100 µM): 29 ± 1 % of Control
HBV Virion DNA ([8]; 0.1 μM, Day 0): 71 pg/ml Culture Medium and 55 pg/ml Culture Medium and 72 pg/ml Culture Medium and 62 pg/ml Culture Medium
HBV Virion DNA ([8]; 0.1 μM, Day 3): 72 pg/ml Culture Medium and 56 pg/ml Culture Medium and 88 pg/ml Culture Medium and 75 pg/ml Culture Medium
HBV Virion DNA ([8]; 0.1 μM, Day 6): 62 pg/ml Culture Medium and 69 pg/ml Culture Medium and 55 pg/ml Culture Medium
HBV Virion DNA ([8]; 0.1 μM, Day 9): 75 pg/ml Culture Medium and 65 pg/ml Culture Medium and 77 pg/ml Culture Medium and 57 pg/ml Culture Medium
Intracellular HBV DNA, Mono (episomal 3.2-3.8 Kb HBV genomes) ([8]; 0.1 μM): 2.2 pg/μg Cell DNA and 2.3 pg/μg Cell DNA and 2.5 pg/μg Cell DNA and 2.6 pg/μg Cell DNA
Intracellular HBV DNA, RI (replication intermediates) ([8]; 0.1 μM): 60 pg/μg Cell DNA and 61 pg/μg Cell DNA and 74 pg/μg Cell DNA and 79 pg/μg Cell DNA
HBV Virion DNA ([8]; 1 μM, Day 0): 56 pg/ml Culture Medium and 51 pg/ml Culture Medium and 66 pg/ml Culture Medium and 79 pg/ml Culture Medium
HBV Virion DNA ([8]; 1 μM, Day 3): 56 pg/ml Culture Medium and 58 pg/ml Culture Medium and 60 pg/ml Culture Medium and 68 pg/ml Culture Medium
HBV Virion DNA ([8]; 1 μM, Day 6): 38 pg/ml Culture Medium and 41 pg/ml Culture Medium and 43 pg/ml Culture Medium and 44 pg/ml Culture Medium
HBV Virion DNA ([8]; 1 μM, Day 9): 10 pg/ml Culture Medium and 13 pg/ml Culture Medium and 11 pg/ml Culture Medium and 18 pg/ml Culture Medium
Intracellular HBV DNA, Mono (episomal 3.2-3.8 Kb HBV genomes) ([8]; 1 μM): 2.3 pg/μg Cell DNA and 2.4 pg/μg Cell DNA and 2.2 pg/μg Cell DNA and 2.1 pg/μg Cell DNA
Intracellular HBV DNA, RI (replication intermediates) ([8]; 1 μM): 24 pg/μg Cell DNA and 20 pg/μg Cell DNA and 25 pg/μg Cell DNA and 30 pg/μg Cell DNA
HBV Virion DNA ([8]; 10 μM, Day 0): 73 pg/ml Culture Medium and 53 pg/ml Culture Medium and 56 pg/ml Culture Medium and 77 pg/ml Culture Medium
HBV Virion DNA ([8]; 10 μM, Day 3): 49 pg/ml Culture Medium and 55 pg/ml Culture Medium and 57 pg/ml Culture Medium and 50 pg/ml Culture Medium
HBV Virion DNA ([8]; 10 μM, Day 6): 21 pg/ml Culture Medium and 22 pg/ml Culture Medium and 19 pg/ml Culture Medium and 24 pg/ml Culture Medium
Intracellular HBV DNA, Mono (episomal 3.2-3.8 Kb HBV genomes) ([8]; 10 μM): 2.6 pg/μg Cell DNA and 2.4 pg/μg Cell DNA and 2.2 pg/μg Cell DNA and 2.7 pg/μg Cell DNA
Intracellular HBV DNA, RI (replication intermediates) ([8]; 10 μM): 9 pg/μg Cell DNA and 8 pg/μg Cell DNA and 6 pg/μg Cell DNA
inhibition of HBV virion DNA and intracellular HBV RI DNA levels ([8]; in words, versus ddC): markedly inhibited; also recorded: substantially inhibited
Relative Level of HBeAg ([9]; 10 μM, nine days, 12960 min): 26 % of Untreated Control
Relative Level of HBsAg ([9]; 10 μM, nine days, 12960 min): 113 % of Untreated Control
Relative Level of Virion DNA ([9]; 10 μM, nine days, 12960 min): 1 % of Untreated Control
activity at 10 µM ([9]; read-out: Relative Level of HBeAg, 10 μM, nine days): 33%
activity at 10 µM ([9]; read-out: Relative Level of HBsAg, 10 μM, nine days): 116%
activity at 10 µM ([9]; read-out: Relative Level of Virion DNA, 10 μM, nine days): 1%
effect on HBsAg levels released into the culture medium ([9]; in words): None of the compounds tested
reduction in HBeAg and virion DNA levels ([9]; in words): caused a reduction; also recorded: most active compounds in suppressing HBeAg and virion DNA levels
